Experimental data published in publication PMC10178848, “Modulating fast skeletal muscle contraction protects skeletal muscle in animal models of Duchenne muscular dystrophy” (The Journal of Clinical Investigation, 2023).

System: GRMD plasma proteins
Assay type: in vivo, dog
Conditions: EDG-5506 treatment to GRMD baseline; Increased in GRMD

O=c1ccc(-c2cnc(OCC(F)(F)F)nc2)nn1Cc1cncc(F)c1 [EDG-5506]
Change from GRMD Baseline (fraction): Fibronectin Fragment 4 (FN1): -0.0853 fraction | Change from GRMD Baseline (fraction): Follistatin (FST): -0.1433 fraction | Change from GRMD Baseline (fraction): Fractalkine (CX3CL1): -0.1153 fraction | Change from GRMD Baseline (fraction): Fructose-bisphosphate aldolase A (ALDOA): 0.1605 fraction | Change from GRMD Baseline (fraction): G2/mitotic-specific cyclin-B1 (CCNB1): -0.0054 fraction | Change from GRMD Baseline (fraction): Galectin-4 (LGALS4): -0.0907 fraction | Change from GRMD Baseline (fraction): Galectin-7 (LGALS7): -0.1308 fraction | Change from GRMD Baseline (fraction): Glucose-6-phosphate isomerase (GPI): -0.4647 fraction | Change from GRMD Baseline (fraction): Glyceraldehyde-3-phosphate dehydrogenase (GAPDH): -0.5078 fraction | Change from GRMD Baseline (fraction): Glycogen synthase kinase-3 alpha/beta (GSK3A GSK3B): -0.3338 fraction | Change from GRMD Baseline (fraction): Granulocyte-macrophage colony-stimulating factor (CSF2): -0.2326 fraction | Change from GRMD Baseline (fraction): Growth factor receptor-bound protein 2 (GRB2): -0.3399 fraction | Change from GRMD Baseline (fraction): Growth/differentiation factor 5 (GDF5): -0.0403 fraction | Change from GRMD Baseline (fraction): Heat shock 70 kDa protein 1A (HSPA1A): -0.2859 fraction | Change from GRMD Baseline (fraction): Heat shock cognate 71 kDa protein (HSPA8): -0.3616 fraction | Change from GRMD Baseline (fraction): Heat shock protein HSP 90-alpha/beta (HSP90AA1 HSP90AB1): -0.1032 fraction | Change from GRMD Baseline (fraction): Heat shock protein HSP 90-beta (HSP90AB1): -0.0167 fraction | Change from GRMD Baseline (fraction): Heat shock protein beta-1 (HSPB1): -0.0454 fraction | Change from GRMD Baseline (fraction): Hepatoma-derived growth factor-related protein 2 (HDGFRP2): -0.0887 fraction | Change from GRMD Baseline (fraction): Heterogeneous nuclear ribonucleoprotein A/B (HNRNPAB): -0.2641 fraction | Change from GRMD Baseline (fraction): Heterogeneous nuclear ribonucleoprotein Q (SYNCRIP): -0.2959 fraction | Change from GRMD Baseline (fraction): Heterogeneous nuclear ribonucleoproteins A2/B1 (HNRNPA2B1): -0.2792 fraction | Change from GRMD Baseline (fraction): Hexokinase-2 (HK2): -0.2831 fraction | Change from GRMD Baseline (fraction): Histidine triad nucleotide-binding protein 1 (HINT1): -0.1184 fraction | Change from GRMD Baseline (fraction): Histone H1.2 (HIST1H1C): -0.2004 fraction | Change from GRMD Baseline (fraction): Histone deacetylase 8 (HDAC8): -0.1223 fraction | Change from GRMD Baseline (fraction): Homeodomain-interacting protein kinase 3 (HIPK3): 0.4673 fraction | Change from GRMD Baseline (fraction): Immunoglobulin superfamily containing leucine-rich repeat protein 2 (ISLR2): 0.163 fraction | Change from GRMD Baseline (fraction): Inducible T-cell costimulator (ICOS): -0.069 fraction | Change from GRMD Baseline (fraction): Inosine-5'-monophosphate dehydrogenase 2 (IMPDH2): -0.2973 fraction | Change from GRMD Baseline (fraction): Insulin-degrading enzyme (IDE): -0.2351 fraction | Change from GRMD Baseline (fraction): Insulin-like growth factor-binding protein 3 (IGFBP3): -0.1253 fraction | Change from GRMD Baseline (fraction): Intercellular adhesion molecule 5 (ICAM5): 0.2028 fraction | Change from GRMD Baseline (fraction): Interferon alpha-10 (IFNA10): 0.155 fraction | Change from GRMD Baseline (fraction): Interleukin-1 alpha (IL1A): -0.061 fraction | Change from GRMD Baseline (fraction): Interleukin-1 receptor-like 2 (IL1RL2): -0.0194 fraction | Change from GRMD Baseline (fraction): Interleukin-15 receptor subunit alpha (IL15RA): -0.1087 fraction | Change from GRMD Baseline (fraction): Interleukin-17F (IL17F): -0.0145 fraction | Change from GRMD Baseline (fraction): Interleukin-37 (IL37): -0.0864 fraction | Change from GRMD Baseline (fraction): Junctional adhesion molecule B (JAM2): -0.0925 fraction | Change from GRMD Baseline (fraction): Junctional adhesion molecule C (JAM3): -0.1846 fraction | Change from GRMD Baseline (fraction): Kallikrein-6 (KLK6): -0.0597 fraction | Change from GRMD Baseline (fraction): Kallikrein-12 (KLK12): 0.0192 fraction | Change from GRMD Baseline (fraction): Kallikrein-14 (KLK14): -0.165 fraction | Change from GRMD Baseline (fraction): Kin of IRRE-like protein 3 (KIRREL3): -0.0664 fraction | Change from GRMD Baseline (fraction): Kremen protein 2 (KREMEN2): -0.1517 fraction | Change from GRMD Baseline (fraction): Kynureninase (KYNU): -0.1154 fraction | Change from GRMD Baseline (fraction): L-Selectin (SELL): -0.2072 fraction | Change from GRMD Baseline (fraction): L-lactate dehydrogenase B chain (LDHB): -0.3998 fraction | Change from GRMD Baseline (fraction): Leucine-rich repeat serine/threonine-protein kinase 2 (LRRK2): -0.1394 fraction | Change from GRMD Baseline (fraction): Leucine-rich repeat transmembrane protein FLRT1 (FLRT1): -0.1359 fraction | Change from GRMD Baseline (fraction): Low affinity immunoglobulin epsilon Fc receptor (FCER2): -0.0521 fraction | Change from GRMD Baseline (fraction): MAP kinase-activated protein kinase 2 (MAPKAPK2): -0.3216 fraction | Change from GRMD Baseline (fraction): MAP kinase-activated protein kinase 3 (MAPKAPK3): -0.2837 fraction | Change from GRMD Baseline (fraction): Macrophage scavenger receptor types I and II (MSR1): -0.0382 fraction | Change from GRMD Baseline (fraction): Malate dehydrogenase, cytoplasmic (MDH1): -0.1486 fraction | Change from GRMD Baseline (fraction): Methionine aminopeptidase 2 (METAP2): -0.1671 fraction | Change from GRMD Baseline (fraction): Microtubule-associated protein tau (MAPT): -0.2425 fraction | Change from GRMD Baseline (fraction): Mitogen-activated protein kinase 3 (MAPK3): -0.2851 fraction | Change from GRMD Baseline (fraction): Mitogen-activated protein kinase 8 (MAPK8): -0.2995 fraction | Change from GRMD Baseline (fraction): Mitogen-activated protein kinase 12 (MAPK12): -0.3528 fraction | Change from GRMD Baseline (fraction): Mitogen-activated protein kinase 14 (MAPK14): -0.2706 fraction | Change from GRMD Baseline (fraction): Mothers against decapentaplegic homolog 3 (SMAD3): -0.0452 fraction | Change from GRMD Baseline (fraction): Myeloblastin (PRTN3): 0.0617 fraction | Change from GRMD Baseline (fraction): Myoglobin (MB): -0.422 fraction | Change from GRMD Baseline (fraction): Myosin-binding protein C, slow-type (MYBPC1): 0.1932 fraction | Change from GRMD Baseline (fraction): NKG2D ligand 2 (ULBP2): -0.0329 fraction | Change from GRMD Baseline (fraction): NSFL1 cofactor p47 (NSFL1C): -0.3479 fraction | Change from GRMD Baseline (fraction): Natural cytotoxicity triggering receptor 3 (NCR3): -0.0271 fraction | Change from GRMD Baseline (fraction): Neuronal cell adhesion molecule (NRCAM): 0.199 fraction | Change from GRMD Baseline (fraction): Neutral ceramidase (ASAH2): -0.1226 fraction | Change from GRMD Baseline (fraction): Nucleoside diphosphate kinase A (NME1): -0.3054 fraction | Change from GRMD Baseline (fraction): OCIA domain-containing protein 1 (OCIAD1): -0.019 fraction | Change from GRMD Baseline (fraction): Oncostatin-M (OSM): -0.0794 fraction | Change from GRMD Baseline (fraction): Opioid-binding protein/cell adhesion molecule (OPCML): -0.0946 fraction | Change from GRMD Baseline (fraction): PIK3CA/PIK3R1 (PIK3CA PIK3R1): -0.2992 fraction | Change from GRMD Baseline (fraction): Parathyroid hormone-related protein (PTHLH): -0.1165 fraction | Change from GRMD Baseline (fraction): Peptidyl-prolyl cis-trans isomerase E (PPIE): -0.2567 fraction | Change from GRMD Baseline (fraction): Peroxiredoxin-1 (PRDX1): -0.376 fraction | Change from GRMD Baseline (fraction): Peroxiredoxin-6 (PRDX6): -0.4044 fraction | Change from GRMD Baseline (fraction): Phosphatidylethanolamine-binding protein 1 (PEBP1): -0.1964 fraction | Change from GRMD Baseline (fraction): Phosphoglucomutase-1 (PGM1): -0.1676 fraction | Change from GRMD Baseline (fraction): Phosphoglycerate mutase 1 (PGAM1): 0.2377 fraction | Change from GRMD Baseline (fraction): Plasma serine protease inhibitor (SERPINA5): -0.1552 fraction | Change from GRMD Baseline (fraction): Platelet glycoprotein 4 (CD36): -0.0717 fraction | Change from GRMD Baseline (fraction): Platelet-activating factor acetylhydrolase (PLA2G7): -0.1993 fraction | Change from GRMD Baseline (fraction): Platelet-derived growth factor receptor alpha (PDGFRA): -0.052 fraction | Change from GRMD Baseline (fraction): Proliferating cell nuclear antigen (PCNA): -0.2439 fraction | Change from GRMD Baseline (fraction): Protein NOV homolog (NOV): -0.0815 fraction | Change from GRMD Baseline (fraction): Protein S100-A12 (S100A12): -0.0694 fraction | Change from GRMD Baseline (fraction): RAC-alpha/beta/gamma serine/threonine-protein kinase (AKT1 AKT2 AKT3): -0.3391 fraction | Change from GRMD Baseline (fraction): RAC-beta serine/threonine-protein kinase (AKT2): -0.2794 fraction | Change from GRMD Baseline (fraction): Rab GDP dissociation inhibitor beta (GDI2): -0.3851 fraction | Change from GRMD Baseline (fraction): Receptor tyrosine-protein kinase erbB-3 (ERBB3): 0.0234 fraction | Change from GRMD Baseline (fraction): Receptor-type tyrosine-protein kinase FLT3 (FLT3): -0.1824 fraction | Change from GRMD Baseline (fraction): Renin (REN): -0.0274 fraction | Change from GRMD Baseline (fraction): Retinoblastoma-associated protein (RB1): -0.0961 fraction | Change from GRMD Baseline (fraction): S-formylglutathione hydrolase (ESD): -0.2877 fraction | Change from GRMD Baseline (fraction): Serine/threonine-protein kinase 17B (STK17B): -0.0905 fraction | Change from GRMD Baseline (fraction): Serine/threonine-protein kinase Chk2 (CHEK2): 0.2279 fraction | Change from GRMD Baseline (fraction): Serine/threonine-protein kinase WNK3 (WNK3): -0.1692 fraction | Change from GRMD Baseline (fraction): Serine/threonine-protein kinase receptor R3 (ACVRL1): -0.0902 fraction | Change from GRMD Baseline (fraction): Small nuclear ribonucleoprotein F (SNRPF): -0.0313 fraction | Change from GRMD Baseline (fraction): Somatostatin-28 (SST): 0.1915 fraction | Change from GRMD Baseline (fraction): T-lymphocyte activation antigen CD80 (CD80): -0.0767 fraction | Change from GRMD Baseline (fraction): Thymic stromal lymphopoietin (TSLP): -0.0628 fraction | Change from GRMD Baseline (fraction): Thyroid peroxidase (TPO): -0.1126 fraction | Change from GRMD Baseline (fraction): Tissue factor pathway inhibitor (TFPI): 0.0479 fraction | Change from GRMD Baseline (fraction): Transcription factor AP-1 (JUN): -0.1004 fraction | Change from GRMD Baseline (fraction): Transketolase (TKT): -0.3602 fraction | Change from GRMD Baseline (fraction): Translationally-controlled tumor protein (TPT1): -0.3694 fraction | Change from GRMD Baseline (fraction): Triosephosphate isomerase (TPI1): -0.5129 fraction | Change from GRMD Baseline (fraction): Tropomyosin beta chain (TPM2): -0.0815 fraction | Change from GRMD Baseline (fraction): Troponin I, cardiac muscle (TNNI3): 0.0173 fraction | Change from GRMD Baseline (fraction): Troponin I, fast skeletal muscle (TNNI2): 0.1681 fraction | Change from GRMD Baseline (fraction): Troponin T, cardiac muscle (TNNT2): 0.0317 fraction | Change from GRMD Baseline (fraction): Tumor necrosis factor ligand superfamily member 11 (TNFSF11): -0.1211 fraction | Change from GRMD Baseline (fraction): Tumor necrosis factor receptor superfamily member 1B (TNFRSF1B): -0.1149 fraction | Change from GRMD Baseline (fraction): Tumor necrosis factor receptor superfamily member 3 (LTBR): -0.1112 fraction
